Here are results for 1 compound from patent US11939361B2, “Compositions of peptide inhibitors of Interleukin-23 receptor” (Janssen Pharmaceutica NV, priority 2020, dated 2024).

A short description of this series: Colon and colonic content concentrations in rat TNBS colitis model (LC-MS/MS). In kind it is in vivo, Sprague Dawley rats. The conditions noted are these: Sprague Dawley, po. On the procedure:
[…] In all studies, the peptide of SEQ ID NO: 1 was dosed starting 2 days prior to TNBS induction through day 6, with euthanasia scheduled on day 7.
At the end of each study, colonic content and colon tissue samples were collected from each animal and analyzed for drug concentrations by LC-MS/MS.

Like-named read-outs stand apart in the source and are kept apart here.

On to `CC(=O)NCCCC[C@@H]1NC(=O)[C@H](Cc2c[nH]c3c(C)cccc23)NC(=O)[C@H]([C@@H](C)O)NC(=O)[C@H](CC(N)=O)NC(=O)[C@@H](NC(C)=O)C(C)(C)SSC(C)(C)[C@@H](C(=O)N[C@@H](Cc2ccc(OCCN)cc2)C(=O)N[C@@H](Cc2ccc3ccccc3c2)C(=O)NC2(C(=O)N[C@@H](CCC(=O)O)C(=O)N[C@@H](CC(N)=O)C(=O)N[C@@H](Cc3cccnc3)C(=O)N(C)CC(N)=O)CCOCC2)NC1=O` [SEQ ID NO: 1, Ac-[Pen]*—N-T-[W(7-Me)]-[Lys(Ac)]-[Pen]*-Phe[4-(2-aminoethoxy)]-[2-Nal]-[THP]-E-N-[3-Pal]-Sarc-NH2], for which the tissue level at time at 168 h was 567 ng/g (colon content, 0.033 mg/kg, Study 3, 0.033 mg/kg TID oral, total daily dose 0.1 mg/kg, read-out: Mean concentration in Colon content); 1990 ng/g (colon content, 0.1 mg/kg, Study 2, 0.1 mg/kg TID oral, total daily dose 0.3 mg/kg, read-out: Mean concentration in Colon content); 3180 ng/g (colon content, 0.1 mg/kg, Study 3, 0.1 mg/kg TID oral, total daily dose 0.3 mg/kg, read-out: Mean concentration in Colon content); 7440 ng/g (colon content, 0.33 mg/kg, Study 2, 0.33 mg/kg TID oral, total daily dose 1 mg/kg, read-out: Mean concentration in Colon content); 6050 ng/g (colon content, 0.33 mg/kg, Study 3, 0.33 mg/kg TID oral, total daily dose 1 mg/kg, read-out: Mean concentration in Colon content); 11200 ng/g (colon content, 0.5 mg/kg, Study 2, 0.5 mg/kg BID oral, total daily dose 1 mg/kg, read-out: Mean concentration in Colon content). Moreover, the tissue level at time at 168 h (colon content, 1 mg/kg, Study 2, 1 mg/kg QD oral, total daily dose 1 mg/kg, read-out: Mean concentration in Colon content) came out at 11700 ng/g; the tissue level at time at 168 h (colon content, 1 mg/kg, Study 2, 1 mg/kg TID oral, total daily dose 3 mg/kg, read-out: Mean concentration in Colon content) came out at 22200 ng/g; the tissue level at time at 168 h (colon content, 1 mg/kg, Study 3, 1 mg/kg TID oral, total daily dose 3 mg/kg, read-out: Mean concentration in Colon content) is 20800 ng/g; the tissue level at time at 168 h (colon content, 3.3 mg/kg, Study 2, 3.3 mg/kg TID oral, total daily dose 10 mg/kg, read-out: Mean concentration in Colon content) amounted to 73500 ng/g; the tissue level at time at 168 h (colon, 0.1 mg/kg, Study 3, 0.1 mg/kg TID oral, total daily dose 0.3 mg/kg, read-out: Mean concentration in Colon) turned out to be 44.4 ng/g; the tissue level at time at 168 h (colon, 0.33 mg/kg, Study 3, 0.33 mg/kg TID oral, total daily dose 1 mg/kg, read-out: Mean concentration in Colon) is 158 ng/g. Further, the tissue level at time at 168 h (colon, 1 mg/kg, Study 3, 1 mg/kg TID oral, total daily dose 3 mg/kg, read-out: Mean concentration in Colon) was found to be 509 ng/g.
